Experimental findings from paper PMC5218480 (PLoS ONE, 2017) are described below.

For this assay, the system named is MV-4-11 cells. Kind of assay: Gene expression microarray analysis (Affymetrix PrimeView) and GSEA. The format is cell-based, human. Set-up: RFU PODN (11730768_x_at) / Fold change /veh PODN (11730768_x_at) / RFU LINC00158 (11744669_a_at) / Fold change /veh LINC00158 (11744669_a_at) / RFU DUSP10 (11751237_a_at) / Fold change /veh DUSP10 (11751237_a_at) / RFU ID3 (11757404_x_at) / Fold change /veh ID3 (11757404_x_at) / RFU PLEKHG5 (11737974_s_at) / Fold change /veh PLEKHG5 (11737974_s_at) / RFU LRRC4B (11730491_at) / Fold change /veh LRRC4B (11730491_at) / RFU GIMAP4 (11747438_a_at) / Fold change /veh GIMAP4 (11747438_a_at) / RFU KRT8 (11758183_x_at) / Fold change /veh KRT8 (11758183_x_at) / RFU CNN1 (11734310_a_at) / Fold change /veh CNN1 (11734310_a_at) / RFU VPS37D (11726825_at) / Fold change /veh VPS37D (11726825_at) / RFU C10orf10 (11716522_x_at) / Fold change /veh C10orf10 (11716522_x_at) / RFU KIR2DL2 /// KIR2DL4 /// KIR2DL5A /// KIR2DL5B /// KIR2DS1 /// KIR2DS2 /// KIR2DS3 /// KIR2DS4 /// KIR3DL3 /// KIR3DL3 /// KIR3DS1 (11738374_at) / Fold change /veh KIR2DL2 /// KIR2DL4 /// KIR2DL5A /// KIR2DL5B /// KIR2DS1 /// KIR2DS2 /// KIR2DS3 /// KIR2DS4 /// KIR3DL3 /// KIR3DL3 /// KIR3DS1 (11738374_at) / RFU C1QL1 (11718748_at) / Fold change /veh C1QL1 (11718748_at) / RFU TMPRSS4 (11747572_a_at) / Fold change /veh TMPRSS4 (11747572_a_at) / RFU HAMP (11756126_x_at) / Fold change /veh HAMP (11756126_x_at) / RFU RNFT2 (11725882_a_at) / Fold change /veh RNFT2 (11725882_a_at) / RFU NR4A2 (11747474_a_at) / Fold change /veh NR4A2 (11747474_a_at) / RFU ABCC12 (11746883_a_at) / Fold change /veh ABCC12 (11746883_a_at) / RFU TMEM136 (11760407_x_at) / Fold change /veh TMEM136 (11760407_x_at) / RFU CLDN22 /// WWC2 (11732394_at) / Fold change /veh CLDN22 /// WWC2 (11732394_at) / RFU HLA-DPB1 (11760878_x_at) / Fold change /veh HLA-DPB1 (11760878_x_at) / RFU SPINT1 (11716480_a_at) / Fold change /veh SPINT1 (11716480_a_at) / RFU GAP43 (11754022_s_at) / Fold change /veh GAP43 (11754022_s_at) / RFU A4GNT (11735810_at) / Fold change /veh A4GNT (11735810_at) / RFU PRB3 (11715151_x_at) / Fold change /veh PRB3 (11715151_x_at) / RFU TUBB4B (11761932_at) / Fold change /veh TUBB4B (11761932_at) / RFU CAPN14 (11732068_a_at) / Fold change /veh CAPN14 (11732068_a_at) / RFU TMCC2 (11721928_a_at) / Fold change /veh TMCC2 (11721928_a_at) / RFU IRGQ (11745062_a_at) / Fold change /veh IRGQ (11745062_a_at) / RFU FAM174B (11720279_a_at) / Fold change /veh FAM174B (11720279_a_at) / RFU TMPRSS4 (11748680_a_at) / Fold change /veh TMPRSS4 (11748680_a_at) / RFU FAM212B (11763350_a_at) / Fold change /veh FAM212B (11763350_a_at) / RFU PLEKHG5 (11743358_a_at) / Fold change /veh PLEKHG5 (11743358_a_at) / RFU ZSCAN30 (11745921_a_at) / Fold change /veh ZSCAN30 (11745921_a_at) / RFU CMKLR1 (11741424_a_at) / Fold change /veh CMKLR1 (11741424_a_at) / RFU LOC101060620 /// MAPK8IP1 (11723275_at) / Fold change /veh LOC101060620 /// MAPK8IP1 (11723275_at) / RFU SPTSSB (11747773_x_at) / Fold change /veh SPTSSB (11747773_x_at) / RFU PRSS12 (11739890_at) / Fold change /veh PRSS12 (11739890_at) / RFU BIN1 (11741810_x_at) / Fold change /veh BIN1 (11741810_x_at) / RFU WNT11 (11732464_a_at) / Fold change /veh WNT11 (11732464_a_at) / RFU C10orf10 (11716521_a_at) / Fold change /veh C10orf10 (11716521_a_at) / RFU C5orf56 (11738089_at) / Fold change /veh C5orf56 (11738089_at) / RFU CYB561 (11721691_x_at) / Fold change /veh CYB561 (11721691_x_at) / RFU ANKRD19P (11752326_a_at) / Fold change /veh ANKRD19P (11752326_a_at) / RFU OR2T12 /// OR2T33 /// OR2T8 (11738714_s_at) / Fold change /veh OR2T12 /// OR2T33 /// OR2T8 (11738714_s_at) / RFU VCAN (11748164_a_at) / Fold change /veh VCAN (11748164_a_at) / RFU JSRP1 (11732532_at) / Fold change /veh JSRP1 (11732532_at) / RFU KRTAP10-11 (11738290_x_at) / Fold change /veh KRTAP10-11 (11738290_x_at) / RFU MYO3A (11730013_a_at) / Fold change /veh MYO3A (11730013_a_at) / RFU EBF3 (11725865_a_at) / Fold change /veh EBF3 (11725865_a_at) / RFU CAMK2N1 (11719241_x_at) / Fold change /veh CAMK2N1 (11719241_x_at) / RFU C5orf56 (11738088_a_at) / Fold change /veh C5orf56 (11738088_a_at) / RFU OLFML3 (11715873_a_at) / Fold change /veh OLFML3 (11715873_a_at) / RFU LOC100653217 /// NTM (11731650_a_at) / Fold change /veh LOC100653217 /// NTM (11731650_a_at) / RFU MAPK11 (11762145_a_at) / Fold change /veh MAPK11 (11762145_a_at) / RFU FIZ1 (11724087_x_at) / Fold change /veh FIZ1 (11724087_x_at) / RFU OASL (11726364_x_at) / Fold change /veh OASL (11726364_x_at) / RFU SOX15 (11748057_x_at) / Fold change /veh SOX15 (11748057_x_at) / RFU CD79A (11719716_a_at) / Fold change /veh CD79A (11719716_a_at) / RFU HIST1H1D (11736915_at) / Fold change /veh HIST1H1D (11736915_at) / RFU CASKIN2 (11723855_a_at) / Fold change /veh CASKIN2 (11723855_a_at) / RFU LOC730098 (11760151_x_at) / Fold change /veh LOC730098 (11760151_x_at) / RFU OR4N2 (11742367_at) / Fold change /veh OR4N2 (11742367_at) / RFU PRRT2 (11749266_a_at) / Fold change /veh PRRT2 (11749266_a_at) / RFU SNX32 (11753110_a_at) / Fold change /veh SNX32 (11753110_a_at) / RFU CDHR5 (11726645_a_at) / Fold change /veh CDHR5 (11726645_a_at) / RFU RCAN1 (11760418_a_at) / Fold change /veh RCAN1 (11760418_a_at) / RFU FAM167A (11723789_a_at) / Fold change /veh FAM167A (11723789_a_at) / RFU FAM26E (11764081_at) / Fold change /veh FAM26E (11764081_at) / RFU ISYNA1 (11749810_s_at) / Fold change /veh ISYNA1 (11749810_s_at) / RFU ACY1 (11761880_at) / Fold change /veh ACY1 (11761880_at) / RFU 11764098_at / Fold change /veh 11764098_at / RFU SAMD14 (11745864_x_at) / Fold change /veh SAMD14 (11745864_x_at) / RFU NPB (11741838_a_at) / Fold change /veh NPB (11741838_a_at) / RFU TMPRSS6 (11731388_a_at) / Fold change /veh TMPRSS6 (11731388_a_at) / RFU KRTAP10-2 (11738614_at) / Fold change /veh KRTAP10-2 (11738614_at) / RFU ARHGAP8 /// PRR5-ARHGAP8 (11727945_x_at) / Fold change /veh ARHGAP8 /// PRR5-ARHGAP8 (11727945_x_at) / RFU KRTAP5-7 /// NADSYN1 (11734609_at) / Fold change /veh KRTAP5-7 /// NADSYN1 (11734609_at) / RFU RASL12 (11751679_a_at) / Fold change /veh RASL12 (11751679_a_at) / RFU CDKN2B (11736163_a_at) / Fold change /veh CDKN2B (11736163_a_at) / RFU PRF1 (11729649_at) / Fold change /veh PRF1 (11729649_at) / RFU, ZNF638 /// ZNF638-IT1 / Fold change vs veh, ZNF638 /// ZNF638-IT1 / RFU, PANK3 / Fold change vs veh, PANK3 / RFU, SH3YL1 / Fold change vs veh, SH3YL1 / RFU, ZEB2 / Fold change vs veh, ZEB2 / RFU, NRIP1 / Fold change vs veh, NRIP1 / RFU, PTTG1IP / Fold change vs veh, PTTG1IP / RFU, CAPN2 / Fold change vs veh, CAPN2 / RFU, MED14 / Fold change vs veh, MED14 / RFU, SNORA58 / Fold change vs veh, SNORA58 / RFU, C1orf63 / Fold change vs veh, C1orf63 / RFU, LRRFIP1 / Fold change vs veh, LRRFIP1 / RFU, NDUFAF7 / Fold change vs veh, NDUFAF7 / RFU, SLC12A2 / Fold change vs veh, SLC12A2 / RFU, IBTK / Fold change vs veh, IBTK / RFU, ESF1 / Fold change vs veh, ESF1 / Fold change vs veh, TMEM50B / RFU, TAOK1 / Fold change vs veh, TAOK1 / RFU, ACBD3 / Fold change vs veh, ACBD3 / RFU, TMA16 / Fold change vs veh, TMA16 / RFU, RWDD3 / Fold change vs veh, RWDD3 / RFU, BCAT1 / Fold change vs veh, BCAT1 / RFU, EDEM3 / Fold change vs veh, EDEM3 / RFU, TMEM33 / Fold change vs veh, TMEM33 / RFU, WDR75 / Fold change vs veh, WDR75 / RFU, AHCTF1 / Fold change vs veh, AHCTF1 / RFU, TFRC / Fold change vs veh, TFRC / RFU, ZDHHC17 / Fold change vs veh, ZDHHC17 / RFU, NOM1 / Fold change vs veh, NOM1 / RFU, ARL8B / Fold change vs veh, ARL8B / RFU, ZBTB11 / Fold change vs veh, ZBTB11 / RFU, TAMM41 / Fold change vs veh, TAMM41 / RFU, KIAA1704 /// LOC100996395 / Fold change vs veh, KIAA1704 /// LOC100996395 / RFU, ING1 / Fold change vs veh, ING1 / RFU, TRMT61B / Fold change vs veh, TRMT61B / RFU, FUBP3 / Fold change vs veh, FUBP3 / RFU, TP53 / Fold change vs veh, TP53 / RFU, TNKS2 / Fold change vs veh, TNKS2 / RFU, ZFP14 / Fold change vs veh, ZFP14 / RFU, ACTR2 / Fold change vs veh, ACTR2 / RFU, PPP3R1 / Fold change vs veh, PPP3R1 / RFU, PIK3R1 / Fold change vs veh, PIK3R1 / RFU, HNRNPA1 / Fold change vs veh, HNRNPA1 / RFU, RNF170 / Fold change vs veh, RNF170 / RFU, ZNF28 / Fold change vs veh, ZNF28 / RFU, RNGTT / Fold change vs veh, RNGTT / RFU, OGT / Fold change vs veh, OGT / RFU, BRD1 / Fold change vs veh, BRD1 / RFU, MARS / Fold change vs veh, MARS / RFU, ZNF655 / Fold change vs veh, ZNF655 / RFU, FAHD1 / Fold change vs veh, FAHD1 / RFU, BDP1 / Fold change vs veh, BDP1 / RFU, LRRCC1 / Fold change vs veh, LRRCC1 / RFU, ARID1A / Fold change vs veh, ARID1A / RFU, ZNF146 / Fold change vs veh, ZNF146 / RFU, ZNF330 / Fold change vs veh, ZNF330 / RFU, GPN3 / Fold change vs veh, GPN3 / RFU, C9orf123 / Fold change vs veh, C9orf123 / RFU, N4BP2L2 / Fold change vs veh, N4BP2L2 / RFU, ARFIP1 / Fold change vs veh, ARFIP1 / RFU, FAM179B / Fold change vs veh, FAM179B / RFU, BCL10 / Fold change vs veh, BCL10 / RFU, UHRF1BP1L / Fold change vs veh, UHRF1BP1L / RFU, BET1 / Fold change vs veh, BET1 / RFU, CNOT2 / Fold change vs veh, CNOT2 / RFU, ZNF268 / Fold change vs veh, ZNF268 / Fold change vs veh, ZNF507 / RFU, DGCR2 / Fold change vs veh, DGCR2 / RFU, WDSUB1 / Fold change vs veh, WDSUB1 / Fold change vs veh, HSP90B1 /// MIR3652 / RFU, ADSS / Fold change vs veh, ADSS / RFU, GK / Fold change vs veh, GK / RFU, ZNF148 / Fold change vs veh, ZNF148 / RFU, TAF9 / Fold change vs veh, TAF9 / RFU, SLC1A5 / Fold change vs veh, SLC1A5 / RFU, SLMO2 / Fold change vs veh, SLMO2 / RFU, ABCC4 / Fold change vs veh, ABCC4 / RFU, LOC101060439 /// RAP1B / Fold change vs veh, LOC101060439 /// RAP1B / RFU, RFX7 / Fold change vs veh, RFX7 / RFU, GTPBP10 / Fold change vs veh, GTPBP10 / RFU, CNEP1R1 / Fold change vs veh, CNEP1R1 / RFU, BIVM-ERCC5 /// ERCC5 / Fold change vs veh, BIVM-ERCC5 /// ERCC5 / RFU, ILF3 / Fold change vs veh, ILF3 / RFU 11762660_at / Fold change /veh 11762660_at / RFU VCAN (11757783_s_at) / Fold change /veh VCAN (11757783_s_at) / RFU DDX43 (11728927_at) / Fold change /veh DDX43 (11728927_at) / RFU KRT8 (11758188_x_at) / Fold change /veh KRT8 (11758188_x_at) / RFU NKD1 (11759106_at) / Fold change /veh NKD1 (11759106_at) / RFU SRD5A1 (11742802_a_at) / Fold change /veh SRD5A1 (11742802_a_at) / RFU TPSAB1 /// TPSB2 (11721975_s_at) / Fold change /veh TPSAB1 /// TPSB2 (11721975_s_at) / RFU GSTM3 (11746129_a_at) / Fold change /veh GSTM3 (11746129_a_at) / RFU IL23R (11737362_x_at) / Fold change /veh IL23R (11737362_x_at) / RFU TMEM51 (11727254_a_at) / Fold change /veh TMEM51 (11727254_a_at) / RFU PIWIL2 (11732686_x_at) / Fold change /veh PIWIL2 (11732686_x_at) / RFU ORM1 (11744905_x_at) / Fold change /veh ORM1 (11744905_x_at) / RFU CCDC152 (11743942_at) / Fold change /veh CCDC152 (11743942_at) / RFU ECM1 (11717891_a_at) / Fold change /veh ECM1 (11717891_a_at) / RFU IL23R (11748794_a_at) / Fold change /veh IL23R (11748794_a_at) / RFU TNFAIP8L3 (11732012_x_at) / Fold change /veh TNFAIP8L3 (11732012_x_at) / RFU MBOAT4 (11741988_at) / Fold change /veh MBOAT4 (11741988_at) / RFU 11764193_at / Fold change /veh 11764193_at / RFU TMEM53 (11763286_at) / Fold change /veh TMEM53 (11763286_at) / RFU MAGEB2 (11727129_at) / Fold change /veh MAGEB2 (11727129_at) / RFU TMEM200A (11744735_a_at) / Fold change /veh TMEM200A (11744735_a_at) / RFU CCDC152 (11751479_a_at) / Fold change /veh CCDC152 (11751479_a_at) / RFU FAM211A (11726209_a_at) / Fold change /veh FAM211A (11726209_a_at) / RFU RGS16 (11746705_a_at) / Fold change /veh RGS16 (11746705_a_at) / RFU VCAN (11755009_s_at) / Fold change /veh VCAN (11755009_s_at) / RFU RHOB (11743442_s_at) / Fold change /veh RHOB (11743442_s_at) / RFU RGS16 (11720943_a_at) / Fold change /veh RGS16 (11720943_a_at) / RFU RGS16 (11720944_at) / Fold change /veh RGS16 (11720944_at) / RFU, VPS4B / Fold change vs veh, VPS4B / RFU, CREB1 / Fold change vs veh, CREB1 / RFU, DNAJC13 / Fold change vs veh, DNAJC13 / RFU, GNAQ / Fold change vs veh, GNAQ / RFU, CDK5R1 / Fold change vs veh, CDK5R1 / RFU, ZRANB3 / Fold change vs veh, ZRANB3 / RFU, CUL4A / Fold change vs veh, CUL4A / RFU, CCNY / Fold change vs veh, CCNY / RFU, UFL1 / Fold change vs veh, UFL1 / RFU, COG3 / Fold change vs veh, COG3 / RFU, DIAPH2 / Fold change vs veh, DIAPH2 / RFU, SKA2 / Fold change vs veh, SKA2 / RFU, AFF3 / Fold change vs veh, AFF3 / RFU, LMF1 / Fold change vs veh, LMF1 / RFU, IPO11 / Fold change vs veh, IPO11 / RFU, DFFB / Fold change vs veh, DFFB / RFU, FOXP1 / Fold change vs veh, FOXP1 / RFU, CARD8 / Fold change vs veh, CARD8 / RFU, STRN3 / Fold change vs veh, STRN3 / RFU, ADK / Fold change vs veh, ADK / RFU, RASSF2 / Fold change vs veh, RASSF2 / RFU, WIPF1 / Fold change vs veh, WIPF1 / RFU, LARP1B / Fold change vs veh, LARP1B / RFU, RASA1 / Fold change vs veh, RASA1 / RFU, RB1 / Fold change vs veh, RB1 / RFU, PPFIA1 / Fold change vs veh, PPFIA1 / RFU, MAT2A / Fold change vs veh, MAT2A / RFU, CCT5 / Fold change vs veh, CCT5 / RFU, WDR92 / Fold change vs veh, WDR92 / RFU, CUX1 / Fold change vs veh, CUX1 / RFU, TTC7A / Fold change vs veh, TTC7A / RFU, TMEM135 / Fold change vs veh, TMEM135 / RFU, DEPTOR / Fold change vs veh, DEPTOR / RFU, CPM / Fold change vs veh, CPM / RFU, DNAJB6 / Fold change vs veh, DNAJB6 / RFU, CACNA2D3 / Fold change vs veh, CACNA2D3 / RFU, DTX4 / Fold change vs veh, DTX4 / RFU, TFCP2 / Fold change vs veh, TFCP2 / RFU, GMCL1 /// GMCL1P1 / Fold change vs veh, GMCL1 /// GMCL1P1 / RFU, AEBP2 / Fold change vs veh, AEBP2 / RFU, SNHG1 /// SNORD22 /// SNORD25 /// SNORD26 /// SNORD27 /// SNORD28 /// SNORD29 /// SNORD31 / Fold change vs veh, SNHG1 /// SNORD22 /// SNORD25 /// SNORD26 /// SNORD27 /// SNORD28 /// SNORD29 /// SNORD31 / Fold change (Aza/veh), C12orf56 (ProbeSet 11735607_a_at) / Fold change (ACY-1035/veh), C12orf56 (ProbeSet 11735607_a_at) / Fold change (Aza/veh), FGFR1OP (ProbeSet 11751329_s_at) / Fold change (ACY-1035/veh), FGFR1OP (ProbeSet 11751329_s_at) / Fold change (Aza/veh), VPS36 (ProbeSet 11739960_a_at) / Fold change (ACY-1035/veh), VPS36 (ProbeSet 11739960_a_at) / RFU SYPL1 (11715823_x_at) / Fold change /veh SYPL1 (11715823_x_at) / RFU IGFBP7 (11715501_s_at) / Fold change /veh IGFBP7 (11715501_s_at) / RFU REEP3 (11722064_at) / Fold change /veh REEP3 (11722064_at) / RFU IGLL1 (11728026_x_at) / Fold change /veh IGLL1 (11728026_x_at): dose or concentration left out as unconfirmed. The following applies: MV-4-11 cells, 48 hours.

Regarding `Nc1ncn([C@@H]2O[C@H](CO)[C@@H](O)[C@H]2O)c(=O)n1` [azacitidine], the “RFU MAPK11 (11762145_a_at)” value was 24.54 RFU.
